Source: US20220356163A1, “SMALL MOLECULE INHIBITORS OF Id PROTEINS” (MEMORIAL SLOAN KETTERING CANCER CENTER, priority 2019, published 2022)

Tested on: choroidal neovascularization
Test: Laser-induced choroidal neovascularization (CNV) model of AMD
Assay type: in vivo, mouse
Conditions: intravitreal days 1 and 7; 10 μg AGX51E2, 40 μg Aflibercept
From the text: Mouse mode/s of ocular neovascularization. CNV was induced as previously described. Tobe et al., Am. J. Pathol., 153, 1641-1646 (1998). Briefly, 4-6 week-old female Id1^−/− or Id3^−/− mice and littermate control Id1^+/+ or Id3^+/+ mice (all in C57BL/6 background) had laser-induced rupture of Bruch's membrane at three locations in each eye and after 14 days mice were euthanized, eyes were removed, and choroidal flat mounts were stained with FITC-labeled Griffonia simplicifolia lectin (Vector Laboratories, Burlingame, Calif.) which selectively stains vascular cells (n=12 mice per group). Flat mounts were examined by fluorescence microscopy and the area of each CNV was measured by image analysis with Image-Pro Plus software (Media Cybernetics, Silver Spring, Md.) by an observer masked with respect to experimental groups. In other experiments, wild type 4-6 week-old, female, C57BL/6 mice had rupture of Bruch's membrane in each eye followed by intravitreal injection of 1-30 μg of AGX51 (racemic, E1 or E2) or vehicle in one eye immediately and after 7 days or mice were given twice daily i.p. injections of 500 μg of AGX51 or vehicle for 14 days (n=7-10 mice per group). The area of CNV was measured 14 days after rupture of Bruch's membrane. For Aflibercept and AGX-A treatment experiments, rupture of Bruch's membrane was carried out and then mice were treated with 40 μg of Aflibercept, 10 μg of AGX51E2, 1-5 μg of AGX51, 1-5 μg of AGX-A, DMSO or combinations. The mice were 4-6 week-old female C57BL/6. After 14 days, the mice were euthanized and CNV was measured as described above.

Aflibercept: clinically approved treatment for AMD, a VEGF trap
CNV area, head-to-head and combination treatment: failed to reach statistical significance
